The assay has as its target T1, GST-tagged GDP-loaded KRAS G12V (amino acids 1-169) (Homo sapiens, UniProt P01116, G12V).
T1 construct: GST-tagged GDP-loaded KRAS G12V (amino acids 1-169); made in house; host or cells: E. coli
The assay can be described thus: KRAS G12V probe displacement assay (TR-FRET). In kind it is binding. The settings on record: displacement of biotinylated probe 2 from GDP-loaded KRAS G12V. The method in brief:
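Probe displacement read as TR-FRET (665/620 nm) with anti-GST-Tb and streptavidin-XL665, IC50 from four-parameter logistic fit. Compound preincubated 1 h, 24 °C, with E. coli-expressed KRAS 1-169: WT at 3 nM with 60 nM probe 1, G12V at 2 nM with 2.5 nM probe 2, pH 7.5.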
On the technique in general: Time-resolved FRET reads energy transfer from a long-lived donor to a nearby acceptor.

The structures appear in SMILES notation.

The text below walks through data of patent US20250101028A1, “HETEROCYCLIC COMPOUNDS, COMPOSITIONS THEREOF, AND METHODS OF TREATMENT THEREWITH” (BeiGene, Ltd., priority 2022, published 2025).

T1 sequence (P01116 1-169 isoform P01116-2 G12V): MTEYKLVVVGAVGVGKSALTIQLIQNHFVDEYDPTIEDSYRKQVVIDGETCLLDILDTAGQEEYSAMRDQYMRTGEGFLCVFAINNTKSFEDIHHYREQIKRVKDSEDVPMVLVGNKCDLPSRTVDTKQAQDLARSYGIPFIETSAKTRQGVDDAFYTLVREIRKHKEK

Turning to `Cc1cc(N)nc(-c2c(Cl)cc3c(N4CCC5(CC4)CN(C)C(=O)O5)nc(OC[C@@]45CCCN4C[C@H](F)C5)nc3c2F)c1C(F)(F)F` [Example 106, 8-(7-(6-amino-4-methyl-3-(trifluoromethyl)pyridin-2-yl)-6-chloro-8-fluoro-2-(((2R,7aS)-2-fluorotetrahydro-1H-pyrrolizin-7a(5H)-yl)methoxy)quinazolin-4-yl)-3-methyl-1-oxa-3,8-diazaspiro[4.5]decan-2-one], the IC50 – broadly, the concentration needed to halve the response being measured – worked out at 23 nM.
In the case of `CC1CCN1c1nc(OC[C@@]23CCCN2C[C@H](F)C3)nc2c(F)c(-c3ccc(F)c4sc(N)nc34)c(C(F)(F)F)cc12` (stereo partly drawn) [Example 35] it was 30 nM; in that of `N#CCC1CCN(c2nc(OC[C@@]34CCCN3C[C@H](F)C4)nc3c(F)c(-c4ccc(F)c5sc(N)nc45)c(C(F)(F)F)cc23)C1` (stereo partly drawn) [Example 61, 2-(1-(7-(2-amino-7-fluorobenzo[d]thiazol-4-yl)-8-fluoro-2-(((2R,7aS)-2-fluorotetrahydro-1H-pyrrolizin-7a(5H)-yl)methoxy)-6-(trifluoromethyl)quinazolin-4-yl)pyrrolidin-3-yl)acetonitrile], 14 nM.
For `N#C[C@@H]1CCN(c2nc(OC[C@@]34CCCN3C[C@H](F)C4)nc3c(F)c(-c4ccc(F)c5sc(N)nc45)c(C(F)(F)F)cc23)C[C@H]1O` (mixture of isomers) [Example 75, 1-(7-(2-amino-7-fluorobenzo[d]thiazol-4-yl)-8-fluoro-2-(((2R,7aS)-2-fluorotetrahydro-1H-pyrrolizin-7a(5H)-yl)methoxy)-6-(trifluoromethyl)quinazolin-4-yl)-trans-3-hydroxypiperidine-4-carbonitrile] the value was 3.8 nM; for `Nc1nc2c(-c3c(C(F)(F)F)cc4c(N5CC6CC5C6)nc(OC[C@@]56CCCN5C[C@H](F)C6)nc4c3F)ccc(F)c2s1` [Example 62, 4-(4-(2-azabicyclo[2.1.1]hexan-2-yl)-8-fluoro-2-(((2R,7aS)-2-fluorotetrahydro-1H-pyrrolizin-7a(5H)-yl)methoxy)-6-(trifluoromethyl)quinazolin-7-yl)-7-fluorobenzo[d]thiazol-2-amine], 22 nM; for `N#CC1CCN(c2nc(OC[C@@]34CCCN3C[C@H](F)C4)nc3c(F)c(-c4cc(N)cc(Cl)c4C(F)(F)F)ncc23)CC1` [Example 121, 1-(7-(5-amino-3-chloro-2-(trifluoromethyl)phenyl)-8-fluoro-2-(((2R,7aS)-2-fluorotetrahydro-1H-pyrrolizin-7a(5H)-yl)methoxy)pyrido[4,3-d]pyrimidin-4-yl)piperidine-4-carbonitrile], 13 nM.
For `CC1(C)CCN1c1nc(OC[C@@]23CCCN2C[C@H](F)C3)nc2c(F)c(-c3ccc(F)c4sc(N)nc34)c(C(F)(F)F)cc12` [Example 36, 4-(4-(2,2-dimethylazetidin-1-yl)-8-fluoro-2-(((2R,7aS)-2-fluorotetrahydro-1H-pyrrolizin-7a(5H)-yl)methoxy)-6-(trifluoromethyl)quinazolin-7-yl)-7-fluorobenzo[d]thiazol-2-amine] the value was 19 nM; for `CC1CN(c2nc(OC[C@@]34CCCN3C[C@H](F)C4)nc3c(F)c(-c4cc(N)cc(Cl)c4C(F)(F)F)ncc23)CCO1` (stereo partly drawn) [Example 119, 3-chloro-5-(8-fluoro-2-(((2R,7aS)-2-fluorotetrahydro-1H-pyrrolizin-7a(5H)-yl)methoxy)-4-(2-methylmorpholino)pyrido[4,3-d]pyrimidin-7-yl)-4-(trifluoromethyl)aniline], 24 nM; for `Nc1nc2c(-c3c(C(F)(F)F)cc4c(NC5CC5c5ccccc5)nc(OC[C@@]56CCCN5C[C@H](F)C6)nc4c3F)ccc(F)c2s1` (relative stereo) [Example 5, 7-fluoro-4-(8-fluoro-2-(((2R,7aS)-2-fluorotetrahydro-1H-pyrrolizin-7a(5H)-yl)methoxy)-4-(((trans)-2-phenylcyclopropyl)amino)-6-(trifluoromethyl)quinazolin-7-yl)benzo[d]thiazol-2-amine], 45 nM.
